The values that follow come from patent US20240025887A1, “THIENYL AND CYCLOALKYL AMINOPYRIMIDINE COMPOUNDS AS INHIBITORS OF NUAK KINASES, COMPOSITIONS AND USES THEREOF” (Ontario Institute for Cancer Research (OICR), priority 2021, published 2024).

Usually IC50 stands for the concentration at which inhibition is half-maximal.

Holding throughout (type): biochemical
One assay addresses T1, NUAK2 (h) (Homo sapiens, UniProt Q9H093).
T1 construct: This assay was done radiometrically using full-length, recombinant enzyme; purchased Eurofins
T1 sequence (Q9H093 1-628): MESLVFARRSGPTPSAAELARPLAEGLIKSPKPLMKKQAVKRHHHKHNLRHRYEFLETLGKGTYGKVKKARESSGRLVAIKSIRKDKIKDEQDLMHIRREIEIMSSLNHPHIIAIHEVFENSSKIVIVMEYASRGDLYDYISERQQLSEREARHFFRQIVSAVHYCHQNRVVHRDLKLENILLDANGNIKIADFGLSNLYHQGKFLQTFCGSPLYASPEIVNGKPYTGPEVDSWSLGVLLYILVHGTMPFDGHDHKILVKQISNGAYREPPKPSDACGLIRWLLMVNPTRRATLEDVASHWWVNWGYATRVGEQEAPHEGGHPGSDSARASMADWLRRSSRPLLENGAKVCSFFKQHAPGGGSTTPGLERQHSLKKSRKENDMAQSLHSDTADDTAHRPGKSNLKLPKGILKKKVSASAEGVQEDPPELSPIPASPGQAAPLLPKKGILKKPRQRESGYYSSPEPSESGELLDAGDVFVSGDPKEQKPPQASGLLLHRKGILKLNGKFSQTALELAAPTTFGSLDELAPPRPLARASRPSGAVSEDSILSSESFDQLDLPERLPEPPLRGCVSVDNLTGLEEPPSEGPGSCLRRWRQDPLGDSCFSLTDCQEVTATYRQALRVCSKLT
As to the kind of experiment: NUAK2 enzymatic assay (radiometric, Eurofins). The settings on record: for IC50: radiometric, full-length recombinant enzyme; for AUR-A (IC50, nM)/NUAK2 (IC50, nM): NUAK2 selectivity over Aurora-A, ratio of IC50s. The protocol:
(§1) To identify small molecule NUAK inhibitors, a biochemical NUAK2 enzymatic assay was outsourced to Eurofins. This assay was done radiometrically using full-length, recombinant enzyme. NUAK2 (h) was incubated with 8 mM MOPS pH 7.0, 0.2 mM EDTA, 300 μM […], 10 mM magnesium acetate and […] (specific activity and concentration as required). The reaction was initiated by the addition of the Mg/ATP mix. After incubation for 40 minutes at room temperature, the reaction was stopped by the addition of phosphoric acid to a concentration of 0.5%. 10 μL of the reaction was then spotted onto a P30 filter mat and washed four times for 4 minutes in 0.425% phosphoric acid and once in methanol prior to drying and scintillation counting. Compounds were routinely counter screened against Aurora A and NUAK1. The results are shown in Table 1 where IC50s are reported the following ranges: A: 0.1-10 nM; B: 11-100 nM; C: 101-1000 nM; D: >1000 nM for the compounds of Formula I)

A further assay concerns the target T2, NUAK1 (Homo sapiens, UniProt O60285).
T2 sequence (O60285 1-661): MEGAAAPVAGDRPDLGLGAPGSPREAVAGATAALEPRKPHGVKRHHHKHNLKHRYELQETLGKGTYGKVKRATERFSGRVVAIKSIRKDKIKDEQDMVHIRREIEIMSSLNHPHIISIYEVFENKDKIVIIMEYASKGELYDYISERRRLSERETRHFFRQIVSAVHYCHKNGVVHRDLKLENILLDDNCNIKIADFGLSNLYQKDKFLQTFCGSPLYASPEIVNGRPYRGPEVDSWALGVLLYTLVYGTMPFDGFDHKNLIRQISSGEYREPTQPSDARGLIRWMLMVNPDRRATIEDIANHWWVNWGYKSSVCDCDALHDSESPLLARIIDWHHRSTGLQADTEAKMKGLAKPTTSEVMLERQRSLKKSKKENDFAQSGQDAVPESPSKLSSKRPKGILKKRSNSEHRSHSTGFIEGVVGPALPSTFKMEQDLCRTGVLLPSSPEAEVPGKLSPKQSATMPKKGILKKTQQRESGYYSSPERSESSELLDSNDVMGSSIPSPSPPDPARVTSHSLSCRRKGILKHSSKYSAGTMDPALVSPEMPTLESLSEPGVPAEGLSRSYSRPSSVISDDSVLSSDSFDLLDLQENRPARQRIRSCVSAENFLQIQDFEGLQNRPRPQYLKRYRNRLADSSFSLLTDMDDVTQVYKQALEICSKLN
Nature of the assay: NUAK1 counter screen. As to the method:
as §1
In general terms: The purpose of a counterscreen is to sort out artefacts and off-target activity.

The target in another assay is T3, Aurora A (Homo sapiens, UniProt O14965).
T3 sequence (O14965 1-403): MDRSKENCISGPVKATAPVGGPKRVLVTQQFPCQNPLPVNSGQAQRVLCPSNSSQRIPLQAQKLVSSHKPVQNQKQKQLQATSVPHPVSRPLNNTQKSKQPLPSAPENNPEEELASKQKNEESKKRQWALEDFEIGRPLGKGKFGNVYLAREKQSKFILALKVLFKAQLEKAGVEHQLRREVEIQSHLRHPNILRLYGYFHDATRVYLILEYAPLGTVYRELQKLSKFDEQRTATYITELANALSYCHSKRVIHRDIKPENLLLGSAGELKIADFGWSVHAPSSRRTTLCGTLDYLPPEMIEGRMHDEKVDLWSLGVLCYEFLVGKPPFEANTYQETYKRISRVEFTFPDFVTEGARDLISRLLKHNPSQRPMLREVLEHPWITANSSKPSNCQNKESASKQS
As to the kind of experiment: Aurora A counter screen. The note with it: read-out: AUR-A (IC50). As to the method:
as §1

A value given as a limit tells only on which side of the number the result lay.

For the molecule `CC(C)N1C[C@@H]2C[C@H]1CN2c1ccc(Nc2ncc(Cl)c(Nc3ccsc3C(N)=O)n2)c(OC(F)F)c1` (stereo in doubt) [Compound I-35, 3-((5-chloro-2-((2-(difluoromethoxy)-4-((1S,4S)-5-isopropyl-2,5-diazabicyclo[2.2.1]heptan-2-yl)phenyl)amino)pyrimidin-4-yl)amino)thiophene-2-carboxamide], the IC50 on NUAK2 (h) lay within 11 to 100 nM; at NUAK1, 11 to 100 nM; at Aurora A it was 101 to 1000 nM.
For `CC(C)N1C[C@@H]2C[C@H]1CN2c1ccc(Nc2ncc(Cl)c(Nc3sccc3C(N)=O)n2)c(OC(F)F)c1` (stereo in doubt) [Compound I-36, 2-((5-chloro-2-((2-(difluoromethoxy)-4-((1S,4S)-5-isopropyl-2,5-diazabicyclo[2.2.1]heptan-2-yl)phenyl)amino)pyrimidin-4-yl)amino)thiophene-3-carboxamide], the IC50 on NUAK2 (h) lay within 11 to 100 nM; against NUAK1, 11 to 100 nM; on Aurora A, 101 to 1000 nM.
On to `COc1cc(N2CCN(C)CC2)ccc1Nc1ncc(Cl)c(Nc2ccsc2C(N)=O)n1` [Compound C-1, reference compound], for which, on NUAK2 (h), the “AUR-A (IC50, nM)/NUAK2 (IC50, nM)” value stood at 6. The half-inhibitory concentration (IC50) on NUAK2 (h) fell in the range of 0.1 to 10 nM; against NUAK1, 0.1 to 10 nM; on Aurora A it was 11 to 100 nM.
Consider `COc1c(Nc2ncc(Cl)c(Nc3ccsc3C(N)=O)n2)ccc(N2CCN(C)CC2)c1F` [Compound C-2, reference compound], for which the “AUR-A (IC50, nM)/NUAK2 (IC50, nM)” value at NUAK2 (h) turned out to be 71. The results for the IC50 on NUAK2 (h), against NUAK1 and at Aurora A were 0.1 to 10 nM, 0.1 to 10 nM and 101 to 1000 nM, respectively.
As for `COc1cc(N2CCC(N3CCN(C)CC3)CC2)ccc1Nc1ncc(Cl)c(Nc2ccsc2C(N)=O)n1` [Compound C-3, reference compound], the “AUR-A (IC50, nM)/NUAK2 (IC50, nM)” value on NUAK2 (h) worked out at 6. Moreover, the results for the IC50 on NUAK2 (h), at NUAK1 and at Aurora A were 11 to 100 nM, 11 to 100 nM and 101 to 1000 nM, respectively.
As for `CN1CCN(c2ccc(Nc3ncc(Cl)c(Nc4ccsc4C(N)=O)n3)c(Cl)c2F)CC1` [Compound C-4, reference compound], the “AUR-A (IC50, nM)/NUAK2 (IC50, nM)” value at NUAK2 (h) stood at 50. The IC50 fell in the range of 0.1 to 10 nM on NUAK2 (h), 0.1 to 10 nM against NUAK1 and 101 to 1000 nM on Aurora A.
Turning to `Cc1c(Nc2ncc(Cl)c(Nc3ccsc3C(N)=O)n2)ccc(N2CCN(C)CC2)c1F` [Compound C-5, reference compound], the “AUR-A (IC50, nM)/NUAK2 (IC50, nM)” value at NUAK2 (h) came to 14. Also, the half-maximal inhibitory concentration (IC50) was in the range of 0.1 to 10 nM on NUAK2 (h), 11 to 100 nM on NUAK1 and 101 to 1000 nM on Aurora A.
Take `CC(C)Oc1cc(N2CCN(C)CC2)ccc1Nc1ncc(Cl)c(N[C@@H]2CCCC[C@@H]2C(N)=O)n1` [Compound C-6, reference compound]: at NUAK2 (h), the “AUR-A (IC50, nM)/NUAK2 (IC50, nM)” value is on record as 14. In addition, the IC50 at NUAK2 (h) was 101 to 1000 nM; at NUAK1, above 1000 nM; on Aurora A it was above 1000 nM.
Regarding `NC(=O)c1ccsc1Nc1nc(Nc2ccc(N3CCNCC3)cc2OC(F)F)ncc1Cl` [Compound I-2, 2-((5-chloro-2-((2-(difluoromethoxy)-4-(piperazin-1-yl)phenyl)amino)pyrimidin-4-yl)amino)thiophene-3-carboxamide], the half-inhibitory concentration (IC50) on NUAK2 (h) is 11 to 100 nM; at NUAK1, 11 to 100 nM; at Aurora A it was above 1000 nM.
With `CN1CCN(c2ccc(Nc3nccc(Nc4ccsc4C(N)=O)n3)c(OC(F)F)c2)CC1` [Compound I-3, 3-((2-((2-(difluoromethoxy)-4-(4-methylpiperazin-1-yl)phenyl)amino)pyrimidin-4-yl)amino)thiophene-2-carboxamide], the results for the concentration for half-maximal inhibition (IC50) at NUAK2 (h), on NUAK1 and at Aurora A were 101 to 1000 nM, 101 to 1000 nM and above 1000 nM, respectively.
As for `Cc1cnc(Nc2ccc(N3CCN(C)CC3)cc2OC(F)F)nc1Nc1ccsc1C(N)=O` [Compound I-4, 3-((2-((2-(difluoromethoxy)-4-(4-methylpiperazin-1-yl)phenyl)amino)-5-methylpyrimidin-4-yl)amino)thiophene-2-carboxamide], the IC50 was 11 to 100 nM on NUAK2 (h), 11 to 100 nM against NUAK1 and above 1000 nM at Aurora A.
As for `CCN1CCN(c2ccc(Nc3ncc(Cl)c(Nc4ccsc4C(N)=O)n3)c(OC(F)F)c2)CC1` [Compound I-5, 3-((5-chloro-2-((2-(difluoromethoxy)-4-(4-ethylpiperazin-1-yl)phenyl)amino)pyrimidin-4-yl)amino)thiophene-2-carboxamide], the half-inhibitory concentration (IC50) was 11 to 100 nM at NUAK2 (h), 11 to 100 nM at NUAK1 and above 1000 nM on Aurora A.
Take `CN1CCN(c2cc(OC(F)F)c(Nc3ncc(Cl)c(Nc4ccsc4C(N)=O)n3)cc2F)CC1` [Compound I-6, 3-((5-chloro-2-((2-(difluoromethoxy)-5-fluoro-4-(4-methylpiperazin-1-yl)phenyl)amino)pyrimidin-4-yl)amino)thiophene-2-carboxamide]: the IC50 at NUAK2 (h) lay in the range of 11 to 100 nM; against NUAK1 it was 11 to 100 nM; on Aurora A it was 101 to 1000 nM.
`CNC(=O)c1sccc1Nc1nc(Nc2ccc(N3CCN(C)CC3)cc2OC(F)F)ncc1Cl` [Compound I-7, 3-((5-chloro-2-((2-(difluoromethoxy)-4-(4-methylpiperazin-1-yl)phenyl)amino)pyrimidin-4-yl)amino)-N-methylthiophene-2-carboxamide]: the IC50 on NUAK2 (h) lay in the range of 11 to 100 nM; on NUAK1, 11 to 100 nM; at Aurora A, 101 to 1000 nM.
For `C[C@@H]1CN(c2ccc(Nc3ncc(Cl)c(Nc4ccsc4C(N)=O)n3)c(OC(F)F)c2)C[C@H](C)N1C` [Compound I-8, 3-((5-chloro-2-((2-(difluoromethoxy)-4-((3R,5S)-3,4,5-trimethylpiperazin-1-yl)phenyl)amino)pyrimidin-4-yl)amino)thiophene-2-carboxamide], the figures for the IC50 at NUAK2 (h), against NUAK1 and at Aurora A were 0.1 to 10 nM, 0.1 to 10 nM and 11 to 100 nM, respectively.
Regarding `CNC(=O)c1sccc1Nc1nc(Nc2ccc(N3CCN(C)CC3)cc2C(F)(F)F)ncc1Cl` [Compound I-59, 3-((5-chloro-2-((4-(4-methylpiperazin-1-yl)-2-(trifluoromethyl)phenyl)amino)pyrimidin-4-yl)amino)-N-methylthiophene-2-carboxamide], the IC50 at NUAK2 (h) is 11 to 100 nM; at Aurora A, above 1000 nM.
As for `CN1CCN(C2CCN(c3ccc(Nc4ncc(Cl)c(Nc5sccc5C(N)=O)n4)c(OC(F)F)c3)CC2)CC1` [Compound I-74, 2-((5-chloro-2-((2-(difluoromethoxy)-4-(4-(4-methylpiperazin-1-yl)piperidin-1-yl)phenyl)amino)pyrimidin-4-yl)amino)thiophene-3-carboxamide], the half-inhibitory concentration (IC50) at NUAK1 was 11 to 100 nM; on Aurora A, above 1000 nM.
For `COc1cnc(Nc2ccc(N3CCN(C)CC3)cc2OC(F)F)nc1Nc1ccsc1C(N)=O` [Compound I-81], the values for the half-inhibitory concentration (IC50) on NUAK2 (h) and against NUAK1 were 11 to 100 nM and 101 to 1000 nM, respectively.
